The values below come from patent US6790836B2, “Process for preparing indolopyrrolocarbazole derivatives, intermediates therefor, and preparation process of the intermediates” (Banyu Pharmaceutical Co., Ltd., priority 2000, dated 2004).

In general, EC50 refers to the concentration giving half of the maximal effect.

The experiment has as its target T1, topoisomerase I (Homo sapiens, UniProt P11387).
T1 sequence (P11387 1-765): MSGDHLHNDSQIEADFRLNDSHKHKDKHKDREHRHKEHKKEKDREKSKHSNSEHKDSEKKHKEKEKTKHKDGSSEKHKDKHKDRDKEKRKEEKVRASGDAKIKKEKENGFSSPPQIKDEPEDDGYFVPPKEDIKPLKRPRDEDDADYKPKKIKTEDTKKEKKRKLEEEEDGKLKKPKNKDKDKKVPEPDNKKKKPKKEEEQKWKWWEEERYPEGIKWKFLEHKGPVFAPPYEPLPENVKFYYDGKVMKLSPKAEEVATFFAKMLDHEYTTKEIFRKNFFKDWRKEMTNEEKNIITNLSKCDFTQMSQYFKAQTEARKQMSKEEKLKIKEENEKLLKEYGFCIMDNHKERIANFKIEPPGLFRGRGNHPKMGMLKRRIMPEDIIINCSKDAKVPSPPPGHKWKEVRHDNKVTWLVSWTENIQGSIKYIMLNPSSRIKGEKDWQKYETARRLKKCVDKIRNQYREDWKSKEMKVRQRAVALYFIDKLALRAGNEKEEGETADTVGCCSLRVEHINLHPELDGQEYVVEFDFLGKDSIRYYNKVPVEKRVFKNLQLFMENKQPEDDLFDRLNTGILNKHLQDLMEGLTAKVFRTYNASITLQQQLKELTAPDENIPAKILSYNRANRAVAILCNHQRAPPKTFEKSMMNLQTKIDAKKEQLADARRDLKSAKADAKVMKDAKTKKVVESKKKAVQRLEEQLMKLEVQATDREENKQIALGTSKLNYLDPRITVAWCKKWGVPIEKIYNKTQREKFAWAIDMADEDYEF
Briefly: Topoisomerase I-inhibiting activity. The class given is biochemical. The settings on record: concentration of a compound needed to inhibit topoisomerase I activity by 50%. How it is done:
Topoisomerase I-inhibiting activity was assayed by the method described in Yoshinari, T et al., Cancer Research, vol. 55, page 1310 (1995).
In the table, EC50 means the concentration of a compound needed to inhibit topoisomerase I activity by 50%.
With `CN1C(=O)c2c(c3c4ccc(O)cc4n([C@@H]4O[C@H](CO)[C@@H](O)[C@H](O)[C@H]4O)c3c3[nH]c4cc(O)ccc4c23)C1=O` [Compound [b]], it took 0.68 µM to reach a half-maximal effect (EC50). In other words, the sub-micromolar range.
Regarding `O=C1OC(=O)c2c1c1c3ccc(O)cc3[nH]c1c1c2c2ccc(O)cc2n1C1OC(CO)C(O)C(O)C1O` (stereo not shown) [Compound [c]], the EC50 was determined as 0.18 µM.
With `O=C1OC(=O)c2c1c1c3ccc(OCc4ccccc4)cc3[nH]c1c1c2c2ccc(OCc3ccccc3)cc2n1C1OC(COCc2ccccc2)C(OCc2ccccc2)C(OCc2ccccc2)C1OCc1ccccc1` [Example 1, 12,13-dihydro-2,10-dibenzyloxy-13-(β-D-2,3,4,6-tetra-O-benzylglucopyranosyl)-5H-indolo[2,3-a]carbazole-5,6-dicarboxylic anhydride], the EC50 is > 1000 µM.
For `O=C1c2c(c3c4ccc(OCc5ccccc5)cc4n(C4OC(COCc5ccccc5)C(OCc5ccccc5)C(OCc5ccccc5)C4OCc4ccccc4)c3c3[nH]c4cc(OCc5ccccc5)ccc4c23)C(=O)N1NC(CO)CO` [Example 2, 12,13-dihydro-2,10-dibenzyloxy-6-N-(1-hydroxymethyl-2-hydroxyethylamino)-13-(β-D-2,3,4,6-tetra-O-benzylglucopyranosyl)-5H-indolo[2.3-a]pyrrolo[3,4-c]-carbazole-5,7(6H)-dione], the EC50 is > 1000 µM.
